Results: patent US20060239926A1, “Specific high-relaxivity compounds” (GUERBET, priority 2003, published 2006)
pIC50, pKd: −log10 of the molar value. *: point of attachment. Cbz = O=C(OCc1ccccc1)*; NHOH = ON*

Tests used:
[1] = Molar relaxivity (r1, r2) measurement; type: physicochemical; conditions: 60 MHz; in water; 2 Gd per mol of product; uncertainty +/−5%
Excerpt: Since BIO-FOLATE.I has 2 Gd per mol of product, the molar relaxivity values are summarized in this table (uncertainty +/−5%).

[2] = biological target: T1, Folate Binding Protein (FBP) (Bos taurus, UniProt P02702); assay: Study of affinity with Folate Binding Protein by means of BIAcore 3000
T1 construct: purchased Sigma F-0504
T1 sequence (P02702 20-234): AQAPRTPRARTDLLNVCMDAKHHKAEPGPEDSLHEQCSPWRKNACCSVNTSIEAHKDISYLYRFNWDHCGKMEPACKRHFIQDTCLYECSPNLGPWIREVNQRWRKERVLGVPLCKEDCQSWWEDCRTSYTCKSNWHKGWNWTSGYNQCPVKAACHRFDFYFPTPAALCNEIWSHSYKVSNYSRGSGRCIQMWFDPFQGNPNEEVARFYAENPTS
Method: (§1) The molar BIO-FOLATE.I relaxivity in water is very good, in particular at 60 MHz: r1=53 mM^−1·s^−1. It is recalled that the relaxivity obtained with specific products of the prior art of the type such as dendrimer associated with folates is r1=9.32 mM^−1s^−1 per Gd (Investigative Radiology, January 2000, vol 35, p 56). • Study of MRI imaging between 30 minutes and 24 hours the contrast at the level of the tumour is very clear, in particular 1 to 2 hours after injection. In addition, Gd assays by ICP-MS; were carried out on the reference organs at the end of the assays using the imager. […] The tumour/muscle ratio is of the order of 4 to 10 times that observed with previously used contrast products. Experimental Conditions for the BIACORE 3000 Studies on P860 and BIO-FOLATE.I (Study of Affinity Between P860, BIO-FOLATE.I, and Folate Binding Protein by Means of BIAcore 3000).
PGM buffer: 100 mM KH2PO4, pH 7, 10% glycerol and 4 mM β-mercaptoethanol
The FBP was immobilized at 1 mg/ml in PGM buffer according to the protocols recommended by BIAcore for coupling amines. Next, the remaining active carboxylated groups are saturated with 1M ethanolamine, pH=8.
The folate binding was followed at four different concentrations (125, 250, 500 and 1000 μM). The association and the dissociation were studied with a flow rate at 30 μl/min. […]

KB cells = assay: In vitro study of binding/internalization in KB cells; type: cell-based, Human; conditions: 37° C., with or without excess free folic acid; ICP-MS assays
KB tumours = assay: Biodistribution study on nude mice bearing KB tumours
Excerpt: c. Biodistribution study on nude mice bearing KB tumours: this biodistribution study comprised competition between P860 and free-folic acid. A group of animals received normal food and a co-injection of folic acid with the product tested and another was given a folate-depleted diet through a single injection of the product tested.
Conditions for Biodistribution Study on Nude Mice Part 1: • Induction of subcutaneous tumours in nude female mice and […] of human KB cells. • Separation of the animals into 2 groups receiving a diet with or without folate (10 days). • The group with folate receives an additional injection of folic acid (25 μmol/kg IV) 5 minutes before the injections of contrast product (CP). • IV injection of CP then removal of organ samples (muscle, tumour, liver, kidneys) and plasma samples. Part 2: Assays by ICP-AES • Gd assay (P860, BIO-FOLATE.I, Dotarem): liver, kidney. Part 3: Bioanalysis: Assay by ICP-MS • Gd assay (P860, BIO-FOLATE.I, Dotarem): tumour, muscle, plasma
Supplementing with Folate • 5.5 mM folic acid diluted in PBS and then injected at a dose of 25 μmol/kg (4.54 ml/kg).
Folic acid and CP: IV administration (caudal vein).
The folic acid was injected 5 minutes before the injection of CP.
Results: Tumour Distribution of the PC—Gd

tumours = assay: Study of MRI imaging between 30 minutes and 24 hours with Gd assays by ICP-MS; type: in vivo
Method: as §1

FBP = conditions: cited from earlier work; for affinity for FBP relative to folic acid: order: pemetrexed>CB3717>IAHQ>2-NH2-ZD1694
human MMP-1 [3] = biological target: T2, human MMP-1 (Homo sapiens, UniProt P03956); assay: In vitro MMP-inhibiting activity (fluorimetry), MMP-1; type: biochemical; conditions: for CONCENTRATION OF PEPTIDE (with significant inhibitory effect): tested at 10^−5, 10^−7 and 10^−9 M with respect to peptides
T2 sequence (P03956 100-469): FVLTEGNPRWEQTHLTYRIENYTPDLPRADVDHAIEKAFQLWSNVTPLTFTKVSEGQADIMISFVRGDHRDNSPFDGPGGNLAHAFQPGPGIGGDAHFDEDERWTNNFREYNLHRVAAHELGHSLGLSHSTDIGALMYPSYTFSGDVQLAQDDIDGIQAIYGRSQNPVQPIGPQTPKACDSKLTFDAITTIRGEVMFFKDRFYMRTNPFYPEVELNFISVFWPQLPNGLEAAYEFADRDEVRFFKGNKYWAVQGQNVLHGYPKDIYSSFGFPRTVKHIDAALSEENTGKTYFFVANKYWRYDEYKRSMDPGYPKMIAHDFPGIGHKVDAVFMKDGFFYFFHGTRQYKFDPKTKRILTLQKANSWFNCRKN
Method: The inventors assayed the in vitro activity of the P947 and P967 gadolinium-chelate contrast products functionalized with matrix metalloproteases inhibitors (MMPs), on human MMP-1 and MMP-3. As regards the affinity of the biovector component, on the receptor, the controls were two peptides:
More precisely, the in vitro MMP-inhibiting activity was evaluated in the following way: • 1. Incubation of the test product in the presence of the MMP enzyme, at 37° C., for a defined period of time, and then measurement of the fluorescence of the medium (t=0). • 2. Induction of the enzyme reaction by addition of the substrate to (which becomes fluorescent when it is cleaved by the enzyme), and then incubation at 37° C. for 40 min. A second measurement of fluorescence is then taken (t=40). • 3. The activity of the MMP enzyme is determined by subtraction of the signal measured by fluorimetry: (t=40)-(t=0). • 4. The results are expressed as percentage inhibition of the activity of the control enzyme. • 5. The standard inhibitory product is TIMP-1.
The products were tested in duplicate, at 10^−5, 10^−7 and 10^−9 M with respect to peptides. Those which contain no peptides were treated in a manner similar to the corresponding functionalized contrast products.

human MMP-1 [4] = biological target: T2, human MMP-1; conditions: value of the peptide component, not of the Gd conjugate, read-out: IC50 OF THE PEPTIDE (LITERATURE); cited from earlier work
αvβ5 = αvβ5 (Homo sapiens, UniProt P06756+P18084); conditions: cited from earlier work
Sequence of αvβ5 (P06756 31-889 limits assumed): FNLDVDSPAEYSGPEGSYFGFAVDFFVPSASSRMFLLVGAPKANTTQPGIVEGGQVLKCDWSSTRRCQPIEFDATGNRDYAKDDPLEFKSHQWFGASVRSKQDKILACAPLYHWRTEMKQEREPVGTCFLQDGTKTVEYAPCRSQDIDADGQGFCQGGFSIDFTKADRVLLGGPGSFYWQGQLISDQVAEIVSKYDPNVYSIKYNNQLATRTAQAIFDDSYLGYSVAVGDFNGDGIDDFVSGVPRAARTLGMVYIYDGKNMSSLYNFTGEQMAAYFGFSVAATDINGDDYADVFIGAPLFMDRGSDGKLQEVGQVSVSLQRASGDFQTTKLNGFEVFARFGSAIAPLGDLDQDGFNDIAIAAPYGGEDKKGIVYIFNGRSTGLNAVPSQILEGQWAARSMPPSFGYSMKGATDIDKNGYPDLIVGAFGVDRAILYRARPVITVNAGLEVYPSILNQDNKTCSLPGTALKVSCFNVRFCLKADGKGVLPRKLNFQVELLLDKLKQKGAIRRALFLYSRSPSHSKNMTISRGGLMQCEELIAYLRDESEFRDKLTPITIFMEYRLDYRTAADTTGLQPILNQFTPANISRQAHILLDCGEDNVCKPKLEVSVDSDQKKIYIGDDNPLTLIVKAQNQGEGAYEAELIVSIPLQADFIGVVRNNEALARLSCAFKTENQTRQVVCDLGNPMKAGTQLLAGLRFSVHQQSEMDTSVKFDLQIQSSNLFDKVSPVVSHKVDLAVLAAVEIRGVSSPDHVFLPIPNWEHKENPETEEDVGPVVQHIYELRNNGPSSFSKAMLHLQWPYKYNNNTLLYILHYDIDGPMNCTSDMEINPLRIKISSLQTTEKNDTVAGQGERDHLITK
Sequence of αvβ5 (P06756 891-1048 partner limits assumed): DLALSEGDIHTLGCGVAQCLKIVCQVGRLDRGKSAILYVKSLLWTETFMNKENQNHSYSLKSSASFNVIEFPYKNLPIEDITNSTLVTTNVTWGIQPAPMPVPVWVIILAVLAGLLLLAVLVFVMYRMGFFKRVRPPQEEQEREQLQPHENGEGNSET
Sequence of αvβ5 (P18084 24-799): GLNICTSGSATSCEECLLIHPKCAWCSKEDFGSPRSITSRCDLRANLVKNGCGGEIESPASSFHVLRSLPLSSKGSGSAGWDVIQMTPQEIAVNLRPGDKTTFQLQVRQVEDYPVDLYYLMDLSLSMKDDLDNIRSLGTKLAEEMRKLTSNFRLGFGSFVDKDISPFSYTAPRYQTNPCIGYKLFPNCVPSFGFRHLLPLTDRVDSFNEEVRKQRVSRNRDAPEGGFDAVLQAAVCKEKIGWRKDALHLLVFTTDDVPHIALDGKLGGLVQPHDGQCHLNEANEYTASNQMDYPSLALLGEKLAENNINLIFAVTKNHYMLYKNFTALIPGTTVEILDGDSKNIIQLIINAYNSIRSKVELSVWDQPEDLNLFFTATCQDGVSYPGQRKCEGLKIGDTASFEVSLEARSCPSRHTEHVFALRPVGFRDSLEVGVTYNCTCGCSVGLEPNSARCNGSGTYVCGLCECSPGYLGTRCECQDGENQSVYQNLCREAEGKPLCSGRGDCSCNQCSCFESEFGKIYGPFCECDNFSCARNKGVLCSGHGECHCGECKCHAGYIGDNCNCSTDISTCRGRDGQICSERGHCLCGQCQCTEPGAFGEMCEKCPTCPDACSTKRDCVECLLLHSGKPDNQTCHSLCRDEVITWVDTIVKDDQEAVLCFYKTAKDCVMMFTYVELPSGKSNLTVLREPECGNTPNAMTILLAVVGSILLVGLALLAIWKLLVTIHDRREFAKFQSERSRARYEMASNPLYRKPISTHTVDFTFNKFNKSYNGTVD

α5β1 = α5β1 (Homo sapiens, UniProt P05556+P08648); conditions: cited from earlier work
Sequence of α5β1 (P08648 42-894 limits assumed): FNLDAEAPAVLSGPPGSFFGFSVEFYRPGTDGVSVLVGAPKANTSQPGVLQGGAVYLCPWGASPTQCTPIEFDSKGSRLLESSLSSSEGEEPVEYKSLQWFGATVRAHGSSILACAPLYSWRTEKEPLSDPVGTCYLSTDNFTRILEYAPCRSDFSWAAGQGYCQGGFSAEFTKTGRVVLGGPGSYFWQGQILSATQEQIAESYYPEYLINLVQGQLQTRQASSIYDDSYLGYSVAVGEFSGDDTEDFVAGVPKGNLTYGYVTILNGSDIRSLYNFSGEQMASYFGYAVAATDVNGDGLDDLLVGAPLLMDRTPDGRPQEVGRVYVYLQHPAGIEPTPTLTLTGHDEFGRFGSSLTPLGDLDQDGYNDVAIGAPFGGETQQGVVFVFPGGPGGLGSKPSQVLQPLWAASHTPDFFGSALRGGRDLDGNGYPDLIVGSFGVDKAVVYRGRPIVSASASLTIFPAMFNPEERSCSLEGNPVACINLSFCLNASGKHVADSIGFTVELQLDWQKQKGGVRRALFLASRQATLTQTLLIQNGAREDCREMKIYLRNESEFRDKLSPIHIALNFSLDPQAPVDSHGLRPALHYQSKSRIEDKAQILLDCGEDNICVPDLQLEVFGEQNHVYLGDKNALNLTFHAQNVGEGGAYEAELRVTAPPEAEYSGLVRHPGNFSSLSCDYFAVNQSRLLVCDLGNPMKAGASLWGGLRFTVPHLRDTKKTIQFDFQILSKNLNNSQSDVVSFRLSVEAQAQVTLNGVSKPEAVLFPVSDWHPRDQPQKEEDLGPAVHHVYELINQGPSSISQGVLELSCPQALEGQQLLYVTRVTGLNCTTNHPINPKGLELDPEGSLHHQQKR
Sequence of α5β1 (P08648 895-1049 partner limits assumed): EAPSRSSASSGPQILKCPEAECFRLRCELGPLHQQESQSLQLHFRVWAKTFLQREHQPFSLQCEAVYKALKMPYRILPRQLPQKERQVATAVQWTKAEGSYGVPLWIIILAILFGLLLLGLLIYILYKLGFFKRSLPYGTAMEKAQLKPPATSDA
Sequence of α5β1 (P05556 21-798): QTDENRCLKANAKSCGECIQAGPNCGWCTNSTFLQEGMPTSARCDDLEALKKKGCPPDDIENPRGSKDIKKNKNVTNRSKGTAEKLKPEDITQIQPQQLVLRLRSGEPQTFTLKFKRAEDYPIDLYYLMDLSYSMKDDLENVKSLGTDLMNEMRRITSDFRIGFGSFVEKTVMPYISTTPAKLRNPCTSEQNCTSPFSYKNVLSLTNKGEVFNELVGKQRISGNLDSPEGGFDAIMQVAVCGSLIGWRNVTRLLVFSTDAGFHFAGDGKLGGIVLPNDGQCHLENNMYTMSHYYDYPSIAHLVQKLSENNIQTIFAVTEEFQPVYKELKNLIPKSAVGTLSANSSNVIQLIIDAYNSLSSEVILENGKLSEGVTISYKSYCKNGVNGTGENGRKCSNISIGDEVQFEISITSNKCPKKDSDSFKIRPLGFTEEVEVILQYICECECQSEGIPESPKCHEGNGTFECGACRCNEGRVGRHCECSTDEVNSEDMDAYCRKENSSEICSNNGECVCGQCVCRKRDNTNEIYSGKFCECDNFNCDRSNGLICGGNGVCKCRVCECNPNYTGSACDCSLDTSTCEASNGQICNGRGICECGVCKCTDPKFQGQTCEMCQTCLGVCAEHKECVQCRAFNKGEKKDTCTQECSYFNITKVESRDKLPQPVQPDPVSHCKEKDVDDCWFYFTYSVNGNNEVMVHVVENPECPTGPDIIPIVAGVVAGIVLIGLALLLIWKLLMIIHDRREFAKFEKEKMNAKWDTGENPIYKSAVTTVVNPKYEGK

Molecule: Nc1nc2ncc(CNc3ccc(C(=O)N[C@@H](CCC(=O)NCCCOCCOCCOCCCNc4c(NCCOCCOCCNc5nc(Nc6ccc(CCC(C(=O)O)N7CCN(C(CCC(=O)NCC(=O)Nc8c(Br)c(C(=O)N(CC(O)C(O)C(O)C(O)CO)CC(O)C(O)C(O)C(O)CO)c(Br)c(C(=O)N(CC(O)C(O)C(O)C(O)CO)CC(O)C(O)C(O)C(O)CO)c8Br)C(=O)O)CCN(C(CCC(=O)NCC(=O)Nc8c(Br)c(C(=O)N(CC(O)C(O)C(O)C(O)CO)CC(O)C(O)C(O)C(O)CO)c(Br)c(C(=O)N(CC(O)C(O)C(O)C(O)CO)CC(O)C(O)C(O)C(O)CO)c8Br)C(=O)O)CCN(C(CCC(=O)NCC(=O)Nc8c(Br)c(C(=O)N(CC(O)C(O)C(O)C(O)CO)CC(O)C(O)C(O)C(O)CO)c(Br)c(C(=O)N(CC(O)C(O)C(O)C(O)CO)CC(O)C(O)C(O)C(O)CO)c8Br)C(=O)O)CC7)cc6)nc(Nc6ccc(CCC(C(=O)O)N7CCN(C(CCC(=O)NCC(=O)Nc8c(Br)c(C(=O)N(CC(O)C(O)C(O)C(O)CO)CC(O)C(O)C(O)C(O)CO)c(Br)c(C(=O)N(CC(O)C(O)C(O)C(O)CO)CC(O)C(O)C(O)C(O)CO)c8Br)C(=O)O)CCN(C(CCC(=O)NCC(=O)Nc8c(Br)c(C(=O)N(CC(O)C(O)C(O)C(O)CO)CC(O)C(O)C(O)C(O)CO)c(Br)c(C(=O)N(CC(O)C(O)C(O)C(O)CO)CC(O)C(O)C(O)C(O)CO)c8Br)C(=O)O)CCN(C(CCC(=O)NCC(=O)Nc8c(Br)c(C(=O)N(CC(O)C(O)C(O)C(O)CO)CC(O)C(O)C(O)C(O)CO)c(Br)c(C(=O)N(CC(O)C(O)C(O)C(O)CO)CC(O)C(O)C(O)C(O)CO)c8Br)C(=O)O)CC7)cc6)n5)c(=O)c4=O)C(=O)O)cc3)nc2c(=O)[nH]1 (some centres unmarked) [BIO-FOLATE.I]
- molar r1 [1]: 53 mM⁻¹ s⁻¹
- binding to FBP (folate binding protein) in vitro [2]: binds specifically to FBP
- amount of product specifically bound and internalized in KB cells (KB cells): Correct capture
- accumulation in the tumours (KB tumours; 15 μmol/kg): excellent accumulation
- decrease of product in the tumour by folic acid (KB tumours; competition with free folate, times 4 and 24 h): 2 times less
- injected dose found in the tumour (KB tumours; female, nude, mouse, in vivo, iv): 5-8%
- injected theoretical dose found in the tumours (KB tumours; folate-free diet, at 4 h): 14%
- injected theoretical dose found in the tumours (KB tumours; folate-free diet, at 72 h): 7%
- effect of prior injection of free folic acid on tumour Gd (KB tumours; free folic at 25 μmol/kg before the product): decrease the Gd concentrations assayed in the tumours
- activity in vivo (KB tumours; in vivo studies (biodistribution, MRI)): P860 is inactive in vivo unlike BIO-FOLATE.I and BIO-FOLATE.II
- contrast at the level of the tumour (MRI) (tumours; between 30 minutes and 24 hours, in particular 1 to 2 hours after injection): very clear
- heightening of the tumours, duration (tumours; versus products of the prior art): longer lasting than with products of the prior art

Molecule: C#CCN(Cc1ccc2nc(N)[nH]c(=O)c2c1)c1ccc(C(=O)N[C@@H](CCC(=O)O)C(=O)O)cc1 [CB3717]
- affinity for FBP relative to folic acid (FBP): affinity greater than folic acid

Molecule: CN(Cc1ccc2nc(N)[nH]c(=O)c2c1)c1ccc(C(=O)NC(CCC(=O)O)C(=O)O)s1 (centres unmarked) [Example 2-NH2-ZD1694]
- affinity for FBP relative to folic acid (FBP): affinity greater than folic acid

Molecule: Nc1nc(O)c2c(CCc3ccc(C(=O)N[C@@H](CCC(=O)O)C(=O)O)cc3)c[nH]c2n1 [pemetrexed]
- affinity for FBP relative to folic acid (FBP): affinity greater than folic acid

Molecule: CC(C)C[C@@H](NC(=O)[C@@H]1CCCN1C(=O)CNC(=O)c1ccc(NC(=S)Nc2ccc(CCC(C(=O)O)N3CCN(CC(=O)O)CCN(CC(=O)O)CCN(CC(=O)O)CC3)cc2)cc1)C(=O)N[C@@H](C)C(=O)NO (some centres unmarked) [Example P947]
- SIGNIFICANT INHIBITORY EFFECT (human MMP-1 [3]; concentration of peptide 10^−5M): 86%
- CONCENTRATION OF PEPTIDE (with significant inhibitory effect) (human MMP-1 [3]): 10^−5M
- pIC50 (human MMP-1 [4]): 6.00

Molecule: CNC[C@H](O)[C@@H](O)[C@H](O)[C@H](O)CO.O=C([O-])CN1CCN(CC(=O)[O-])CCN(CC(=O)O)CCN(CC(=O)[O-])CC1.[Gd+3] [Dotarem]
- injected theoretical dose found in the tumours (KB tumours; mouse, in vivo): 1-2%
- intratumour amounts corrected for g of tissue (KB tumours; mouse, in vivo): negligable beyond 4 h

Molecule: cyclo(ARGD-Mamb) [XJ735]
- blocking of αvβ5 (αvβ5): does not block
- blocking of α5β1 (α5β1): does not block

Molecule: Nc1nc2ccc(NCc3ccc(C(=O)N[C@@H](CCC(=O)O)C(=O)O)cc3)cc2c(=O)[nH]1 [IAHQ]
- affinity for FBP relative to folic acid (FBP): affinity greater than folic acid

Molecule: NC1=NC2=C(S[C@H](CCc3ccc(C(=O)N[C@@H](CCC(=O)O)C(=O)O)s3)CN2)C(O)N1 (some centres unmarked)
- pKd (FBP): 11.49

Molecule: Cbz-Pro-Leu-Gly-{NHOH} [PEPTIDE A]
- CONCENTRATION OF PEPTIDE (with significant inhibitory effect) (human MMP-1 [3]): >10^−5M
- pIC50 (human MMP-1 [4]): 4.40
